In PubChem BioAssay AID330 (DTP/NCI, 2004):
Several values for one entry are separate records, joined by “and”; a condition that tells them apart may be missing. Equal values may be shown once. Inconclusive results and toxic doses are left out. The calls were made as follows: active = survival T/C of 150% or more; inactive = T/C below 125% in these data. Peptide text beside a SMILES is read from it. * marks the point of attachment. Cbz = O=C(OCc1ccccc1)*

System: P388 leukemia ip, CD2F1 mice, survival T/C
Assay: NCI In Vivo Anticancer Drug Screen. Data for tumor model P388 Leukemia (intraperitoneal) in CD2F1 (CDF1) mice
Conditions: endpoint: median survival time, higher = longer survival
Summary of the method: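 Mice carrying the transplanted tumor received test compound or vehicle. Survival was recorded in each group, and the value is the treated-group measurement divided by that of the vehicle-treated control group.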

[1] = dose: 50.0 mg/kg/injection, schedule: Q01DX005 (ip), vehicle: Klucel (hydroxypropylcellulose) (HPC)
[2] = dose: 100.0 mg/kg/injection, schedule: Q01DX005 (ip), vehicle: Klucel (hydroxypropylcellulose) (HPC)
[3] = dose: 200.0 mg/kg/injection, schedule: Q01DX005 (ip), vehicle: Klucel (hydroxypropylcellulose) (HPC)
[4] = dose: 50.0 mg/kg/injection, schedule: Q01DX009 (ip), vehicle: saline
[5] = dose: 100.0 mg/kg/injection, schedule: Q01DX009 (ip), vehicle: saline
[6] = dose: 200.0 mg/kg/injection, schedule: Q01DX009 (ip), vehicle: saline
[7] = dose: 50.0 mg/kg/injection, schedule: Q01DX009 (ip), vehicle: suspension in saline
[8] = dose: 100.0 mg/kg/injection, schedule: Q01DX009 (ip), vehicle: suspension in saline
[9] = dose: 200.0 mg/kg/injection, schedule: Q01DX009 (ip), vehicle: suspension in saline
[10] = dose: 60.0 mg/kg/injection, schedule: Q01DX005 (ip), vehicle: saline with Tween-80
[11] = dose: 120.0 mg/kg/injection, schedule: Q01DX005 (ip), vehicle: saline with Tween-80
[12] = dose: 240.0 mg/kg/injection, schedule: Q01DX005 (ip), vehicle: saline with Tween-80
[13] = dose: 100.0 mg/kg/injection, schedule: Q04DX003 (ip), vehicle: Klucel (hydroxypropylcellulose) (HPC)
[14] = dose: 200.0 mg/kg/injection, schedule: Q04DX003 (ip), vehicle: Klucel (hydroxypropylcellulose) (HPC)
[15] = dose: 25.0 mg/kg/injection, schedule: Q01DX009 (ip), vehicle: saline with Tween-80
[16] = dose: 100.0 mg/kg/injection, schedule: Q01DX009 (ip), vehicle: saline with Tween-80
[17] = dose: 200.0 mg/kg/injection, schedule: Q01DX009 (ip), vehicle: saline with Tween-80
[18] = dose: 50.0 mg/kg/injection, schedule: Q01DX009 (ip), vehicle: saline with Tween-80
[19] = dose: 50.0 mg/kg/injection, schedule: Q01DX005 (ip), vehicle: saline with Tween-80
[20] = dose: 100.0 mg/kg/injection, schedule: Q01DX005 (ip), vehicle: saline with Tween-80
[21] = dose: 200.0 mg/kg/injection, schedule: Q01DX005 (ip), vehicle: saline with Tween-80

Measured: T/C

CCCCP(=O)(CCCC)CCCC.CCCCP(=O)(CCCC)CCCC.CCCCP(=O)(CCCC)CCCC.CCCCP(=O)(CCCC)CCCC.[Fe+3].[O-][Cl+3]([O-])([O-])O
inactive: dose: 50.0 mg/kg/injection, schedule: Q01DX009 (ip), vehicle: saline + Tween-80 + alcohol 112 % of control | dose: 100.0 mg/kg/injection, schedule: Q01DX009 (ip), vehicle: saline + Tween-80 + alcohol 93 % of control | dose: 200.0 mg/kg/injection, schedule: Q01DX009 (ip), vehicle: saline + Tween-80 + alcohol 89 % of control

Nc1ccc2nc3ccc(O)cc3nc2c1
inactive: [1] 103 % of control | [2] 108 % of control | [3] 105 % of control

CCOC(=O)C(C(=O)OCC)=C1C(=O)Nc2ccccc21
inactive: dose: 100.0 mg/kg/injection, schedule: Q04DX002 (ip), vehicle: Klucel (hydroxypropylcellulose) (HPC) 106 % of control | dose: 200.0 mg/kg/injection, schedule: Q04DX002 (ip), vehicle: Klucel (hydroxypropylcellulose) (HPC) 106 % of control | dose: 400.0 mg/kg/injection, schedule: Q04DX002 (ip), vehicle: Klucel (hydroxypropylcellulose) (HPC) 109 % of control

Cc1cc(C2(c3cc(C)c(O)c(CN(CC(=O)O)CC(=O)O)c3)OS(=O)(=O)c3ccccc32)cc(CN(CC(=O)O)CC(=O)O)c1O
inactive: [4] 105 % of control | [5] 96 % of control | [6] 104 % of control

CCOC(=O)c1ccc(NC(=O)NC2=NCCS2)cc1
inactive: dose: 12.5 mg/kg/injection, schedule: Q01DX009 (ip), vehicle: distilled water + Tween-80 96 % of control | dose: 25.0 mg/kg/injection, schedule: Q01DX009 (ip), vehicle: distilled water + Tween-80 93 % of control | dose: 50.0 mg/kg/injection, schedule: Q01DX009 (ip), vehicle: distilled water + Tween-80 93 % of control | dose: 100.0 mg/kg/injection, schedule: Q01DX009 (ip), vehicle: distilled water + Tween-80 96 % of control | dose: 200.0 mg/kg/injection, schedule: Q01DX009 (ip), vehicle: distilled water + Tween-80 87 % of control

O=C(O)C(Cc1ccc(O)cc1)NC(=O)C1CCCN1C(=O)OCc1ccccc1 (stereo not drawn) (Cbz-Pro-Tyr-OH; configuration not given here)
inactive: dose: 50.0 mg/kg/injection, schedule: Q01DX005 (ip), vehicle: saline 96 % of control | dose: 100.0 mg/kg/injection, schedule: Q01DX005 (ip), vehicle: saline 96 % of control | dose: 200.0 mg/kg/injection, schedule: Q01DX005 (ip), vehicle: saline 96 % of control

CC(=O)Nc1nncs1
inactive: dose: 100.0 mg/kg/injection, schedule: Q04DX003 (ip), vehicle: saline sonified 109 % of control | dose: 200.0 mg/kg/injection, schedule: Q04DX003 (ip), vehicle: saline sonified 90 % of control | dose: 400.0 mg/kg/injection, schedule: Q04DX003 (ip), vehicle: saline sonified 118 % of control

CC1=C(CO)C(=O)OC(C(C)C2CCC3C4CC5OC56C(O)C(N5CCCCCC5)CC(=O)C6(C)C4CCC23C)C1 (centres undefined)
inactive: dose: 9.38 mg/kg/injection, schedule: Q01DX005 (ip), vehicle: Klucel (hydroxypropylcellulose) (HPC) 101 % of control | dose: 18.75 mg/kg/injection, schedule: Q01DX005 (ip), vehicle: Klucel (hydroxypropylcellulose) (HPC) 101 % of control | dose: 37.5 mg/kg/injection, schedule: Q01DX005 (ip), vehicle: Klucel (hydroxypropylcellulose) (HPC) 105 % of control | dose: 75.0 mg/kg/injection, schedule: Q01DX005 (ip), vehicle: Klucel (hydroxypropylcellulose) (HPC) 105 % of control | dose: 150.0 mg/kg/injection, schedule: Q01DX005 (ip), vehicle: Klucel (hydroxypropylcellulose) (HPC) 104 % of control

O=C1CSC(=S)N1c1ccc(Cl)c(C(F)(F)F)c1
inactive: [7] 108 % of control | [8] 101 % of control | [9] 104 % of control

CCC1OC(=O)C2C(c3ccccc3)=NOC2[C@H]1C (some centres undefined)
inactive: [10] 102 % of control | [11] 101 % of control | [12] 94 % of control

Brc1cc(-c2ccccc2)on1
inactive: [13] 108 % of control | [14] 103 % of control | dose: 400.0 mg/kg/injection, schedule: Q04DX003 (ip), vehicle: Klucel (hydroxypropylcellulose) (HPC) 105 % of control

CCCCCCCCCCSCC(N)C(=O)O (centres undefined)
inactive: dose: 50.0 mg/kg/injection, schedule: Q01DX009 (ip), vehicle: other 89 % of control | dose: 100.0 mg/kg/injection, schedule: Q01DX009 (ip), vehicle: other 88 % of control | dose: 200.0 mg/kg/injection, schedule: Q01DX009 (ip), vehicle: other 94 % of control | dose: 400.0 mg/kg/injection, schedule: Q01DX009 (ip), vehicle: other 99 % of control

CC1(C)CC[C@]2(C(=O)O)CC[C@]3(C)C(=CC[C@@H]4[C@@]5(C)CC[C@H](O)C(C)(C)[C@@H]5CC[C@]43C)[C@@H]2C1
inactive: dose: 12.5 mg/kg/injection, schedule: Q01DX009 (ip), vehicle: saline with Tween-80 108 % of control | [15] 99 % of control

N#C/C(=C\c1ccc(Cl)cc1)C(=O)N/N=C/c1ccc(Cl)cc1
inactive: [4] 97 % of control | [5] 97 % of control | [6] 101 % of control

C1=Cc2cc(CN3CCOCC3)ccc2Nc2ccccc21
inactive: dose: 60.0 mg/kg/injection, schedule: Q01DX005 (ip), vehicle: Klucel (hydroxypropylcellulose) (HPC) 99 % of control | dose: 120.0 mg/kg/injection, schedule: Q01DX005 (ip), vehicle: Klucel (hydroxypropylcellulose) (HPC) 89 % of control

CCOC(=O)C[n+]1ccc2c([nH]c3cc(OC)ccc32)c1C
inactive: [4] 97 % of control | [5] 112 % of control | [6] 110 % of control

O=[N+]([O-])c1ccc(C(O)C(Br)[N+](=O)[O-])cc1 (centres undefined)
inactive: [16] 104 % of control | [17] 104 % of control | dose: 400.0 mg/kg/injection, schedule: Q01DX009 (ip), vehicle: saline with Tween-80 95 % of control

CC1=CC(c2ccccc2)=CS(=O)(N(C)C)=C1 (centres undefined)
inactive: dose: 60.0 mg/kg/injection, schedule: Q01DX005 (ip), vehicle: saline 100 % of control | dose: 120.0 mg/kg/injection, schedule: Q01DX005 (ip), vehicle: saline 104 % of control | dose: 240.0 mg/kg/injection, schedule: Q01DX005 (ip), vehicle: saline 104 % of control

COc1cc2c(cc1OC)C13CCCC4(OCCO4)C1=CC2(C)O3 (centres undefined)
inactive: [18] 101 % of control | [16] 94 % of control | [17] 93 % of control

O=C1N=C2SCCCN2C1(c1ccccc1)c1ccccc1
inactive: [10] 97 % of control | [11] 92 % of control | [12] 100 % of control

Fc1ccc(NC(=S)SCc2ccco2)cc1
inactive: [7] 101 % of control | [8] 98 % of control | [9] 92 % of control

O=C(O)/C=C/C(=O)Nc1ccc(N=Nc2ccccc2)cc1
inactive: dose: 50.0 mg/kg/injection, schedule: Q04DX003 (ip), vehicle: saline with Tween-80 104 % of control | dose: 100.0 mg/kg/injection, schedule: Q04DX003 (ip), vehicle: saline with Tween-80 100 % of control | dose: 200.0 mg/kg/injection, schedule: Q04DX003 (ip), vehicle: saline with Tween-80 90 % of control

NC(=S)c1cccc(-c2ccccn2)n1
inactive: [13] 102 % of control | [14] 103 % of control

CN(C)CC(=O)Nc1ccc2c(c1)C(=O)c1ccc(NC(=O)CN(C)C)cc1C2=O
inactive: [1] 101 % of control | [2] 97 % of control | [3] 99 % of control

CN1CCN(C(=O)/C(=C/c2ccccc2)NC(=O)c2ccccc2)CC1
inactive: [19] 96 % of control | [20] 95 % of control | [21] 87 % of control

CC1C2c3ccccc3C(c3ccccc32)C1CO (centres undefined)
inactive: [19] 92 % of control | [20] 91 % of control | [21] 90 % of control

CCCN(CCC)C(=O)c1ccc([N+](=O)[O-])cc1
inactive: [15] 106 % of control | [18] 113 % of control | [16] 100 % of control and 104 % of control | [17] 106 % of control
